Laboratory results as given in patent US9802944B2, “Bicyclic compounds as autotaxin (ATX) and lysophosphatidic acid (LPA) production inhibitors” (Hoffmann-La Roche Inc., priority 2014, dated 2017).

Target: ATX (human His-tagged) (Homo sapiens (Human), UniProt Q13822)
Assay: Human ATX enzyme inhibition assay (fluorescence quenching, MR121 substrate)
Type: biochemical
Conditions: 30 nM ATX, 1 μM MR121 substrate, 30° C., pH 8.0
Procedure: Production of Human Full Length ATX, with and without his Tag
Autotaxin (ATX-ENPP2) Cloning:
cDNA was prepared from commercial human hematopoietic cells total RNA and used as template in overlapping PCR to generate a full length human ENPP2 ORF with or without a 3′-6×His tag. These full length inserts were cloned into the pcDNA3.1V5-His TOPO (Invitrogen) vector. The DNA sequences of several single clones were verified. The DNA from a correct full length clone was used to transfect Hek293 cells for verification of protein expression. […] ATX Fermentation: Recombinant protein was produced by large-scale transient transfection in 20 L controlled stirred tank bioreactors (Sartorius). During cell growth and transfection, temperature, stirrer speed, pH and dissolved oxygen concentration were maintained at 37° C., 120 rpm, 7.1 and 30% DO, respectively. […] Expression was analyzed by Western Blot, enzymatic assay and/or analytical IMAC chromatography. After cooling the cell suspension to 4° C. in a flow-through heat exchanger, cell separation and sterile filtration of supernatant was performed by filtration through Zeta Plus 60M02 E16 (Cuno) and Sartopore 2 XLG (Sartorius) filter units. The supernatant was stored at 4° C. prior to purification. ATX Purification: 20 liter of culture supernatant were conditioned for ultrafiltration by adding Brij 35 to a final concentration of 0.02% and by adjusting the pH to 7.0 using 1 M HCl. Then the supernatant was first microfiltered through a 0.2 μm Ultran-Pilot Open Channel PES filter (Whatman) and afterwards concentrated to 1 liter through an Ultran-Pilot Screen Channel PES filter with 30 kDa MWCO (Whatman). Prior to IMAC chromatography, NiSO4 was added to a final concentration of 1 mM. The cleared supernatant was then applied to a HisTrap column (GE Healthcare) previously equilibrated in 50 mM Na2HPO4 pH 7.0, 0.5 M NaCl, 10% glycerol, 0.3% CHAPS, 0.02% NaN3. The column was washed stepwise with the same buffer containing 20 mM, 40 mM and 50 mM imidazole, respectively. The protein was subsequently eluted using a linear gradient to 0.5 M imidazole in 15 column volumes. ATX containing fractions were pooled and concentrated using an Amicon cell equipped with a 30 kDa PES filter membrane. The protein was further purified by size exclusion chromatography on Superdex S-200 prep grade (XK 26/100) (GE Healthcare) in 20 mM BICINE pH 8.5, 0.15 M NaCl, 10% glycerol, 0.3% CHAPS, 0.02% NaN3. […] The protein was stored at −80° C. […] 10 μL of MR121 substrate solution was added (1 μM final concentration), mixed 30 times and then incubated for 15 minutes at 30° C.

`NS(=O)(=O)c1ccc(C(=O)N2C[C@H]3CN(C(=O)c4cc(OCC5CCCOC5)nc(C5CC5)c4)C[C@@H]3C2)nc1` (stereo partly drawn) [Example 2.17, 6-((3aR,6aR)-5-(2-cyclopropyl-6-((tetrahydro-2H-pyran-3-yl)methoxy)isonicotinoyl)octahydropyrrolo[3,4-c]pyrrole-2-carbonyl)pyridine-3-sulfonamide] and `O=C(c1cc(OCC2CCCOC2)nc(C2CC2)c1)N1C[C@@H]2CN(Cc3ccc4[nH]nnc4c3)C[C@H]2C1` (stereo partly drawn) [Example 2.19, ((3aS,6aS)-5-((1H-benzo[d][1,2,3]triazol-5-yl)methyl)hexahydropyrrolo[3,4-c]pyrrol-2(1H)-yl)(2-cyclopropyl-6-((tetrahydro-2H-pyran-3-yl)methoxy)pyridin-4-yl)methanone] are within 1.5-fold of each other in IC50: 9 nM for the first, 10 nM for the second.

`O=C(c1cc(OCC2CCOCC2)nc(C2CC2)c1)N1C[C@@H]2CN(Cc3ccc4[nH]nnc4c3)C[C@H]2C1` [Example 2.18, ((3aS,6aS)-5-((1H-benzo[d][1,2,3]triazol-5-yl)methyl)hexahydropyrrolo[3,4-c]pyrrol-2(1H)-yl)(2-cyclopropyl-6-((tetrahydro-2H-pyran-4-yl)methoxy)pyridin-4-yl)methanone] and `O=C(c1cc(OCC2CCOCC2)nc(C2CC2)c1)N1C[C@@H]2CN(C(=O)c3ccc4[nH]nnc4c3)C[C@@H]2C1` [Example 2.26, ((3aR,6aS)-5-(1H-benzo[d][1,2,3]triazole-5-carbonyl)hexahydropyrrolo[3,4-c]pyrrol-2(1H)-yl)(2-cyclopropyl-6-((tetrahydro-2H-pyran-4-yl)methoxy)pyridin-4-yl)methanone] are within 1.5-fold of each other in IC50: 10 nM for the first, 14 nM for the second.

Going from `O=C(c1cc(Cl)nc(OCC2CCOCC2)c1)N1C[C@@H]2CN(C(=O)c3ccc4[nH]nnc4c3)C[C@H]2C1` [Example 2.20, ((3aS,6aS)-5-(1H-benzo[d][1,2,3]triazole-5-carbonyl)hexahydropyrrolo[3,4-c]pyrrol-2(1H)-yl)(2-chloro-6-((tetrahydro-2H-pyran-4-yl)methoxy)pyridin-4-yl)methanone] to `CN(C)c1cc(C(=O)N2C[C@@H]3CN(C(=O)c4ccc5[nH]nnc5c4)C[C@H]3C2)cc(OCC2CCOCC2)n1` [Example 2.23, ((3aS,6aS)-5-(1H-benzo[d][1,2,3]triazole-5-carbonyl)hexahydropyrrolo[3,4-c]pyrrol-2(1H)-yl)(2-(dimethylamino)-6-((tetrahydro-2H-pyran-4-yl)methoxy)pyridin-4-yl)methanone], the IC50 falls from 40 nM to 5 nM (8-fold). The second is the more potent here.

Going from `O=C(c1ccc2[nH]nnc2c1)N1CC[C@@H]2CN(C(=O)c3cc(OCC4CCOCC4)nc(C4CC4)c3)C[C@@H]2CC1` [Example 2.22, ((3aR,8aS)-6-(1H-benzo[d][1,2,3]triazole-5-carbonyl)octahydropyrrolo[3,4-d]azepin-2(1H)-yl)(2-cyclopropyl-6-((tetrahydro-2H-pyran-4-yl)methoxy)pyridin-4-yl)methanone] to `O=C(c1cc(OCC2CCOCC2)nc(C2CC2)c1)N1CC[C@@H]2CN(C(=O)c3ccc4[nH]c(=O)oc4c3)C[C@@H]2CC1` [Example 3.02, 6-((3aR,8aS)-6-(2-cyclopropyl-6-((tetrahydro-2H-pyran-4-yl)methoxy)isonicotinoyl)decahydropyrrolo[3,4-d]azepine-2-carbonyl)benzo[d]oxazol-2(3H)-one], the IC50 rises from 10 nM to 25 nM (2.5-fold).

`O=C(c1cc(OCC2CCOCC2)nc(C2CC2)c1)N1C[C@@H]2CN(Cc3ccc4[nH]c(=O)oc4c3)C[C@H]2C1` [Example 2.24, 6-(((3aS,6aS)-5-(2-cyclopropyl-6-((tetrahydro-2H-pyran-4-yl)methoxy)isonicotinoyl)hexahydropyrrolo[3,4-c]pyrrol-2(1H)-yl)methyl)benzo[d]oxazol-2(3H)-one] and `O=C(c1cc(OCC2CCOCC2)nc(C2CC2)c1)N1C[C@@H]2CN(C(=O)c3ccc4[nH]c(=O)oc4c3)C[C@H]2C1` [Example 3.01, 6-((3aS,6aS)-5-(2-cyclopropyl-6-((tetrahydro-2H-pyran-4-yl)methoxy)isonicotinoyl)octahydropyrrolo[3,4-c]pyrrole-2-carbonyl)benzo[d]oxazol-2(3H)-one] are within 1.5-fold of each other in IC50: 11 nM for the first, 12 nM for the second.

First: CN(C)c1cc(C(=O)N2C[C@@H]3CN(C(=O)[C@@H]4CCc5[nH]nnc5C4)C[C@H]3C2)cc(OCC2CCOCC2)n1 [Example 2.25, ((3aS,6aS)-5-(2-(dimethylamino)-6-((tetrahydro-2H-pyran-4-yl)methoxy)isonicotinoyl)hexahydropyrrolo[3,4-c]pyrrol-2(1H)-yl)((R)-4,5,6,7-tetrahydro-1H-benzo[d][1,2,3]triazol-5-yl)methanone]
Second: O=C(c1cc(OCC2CCOCC2)cc(C2CC2)c1)N1CC[C@@H]2CN(C(=O)[C@@H]3CCc4[nH]nnc4C3)C[C@@H]2CC1 [Example 2.28, ((3aR,8aS)-6-(3-cyclopropyl-5-((tetrahydro-2H-pyran-4-yl)methoxy)benzoyl)octahydropyrrolo[3,4-d]azepin-2(1H)-yl)((R)-4,5,6,7-tetrahydro-1H-benzo[d][1,2,3]triazol-5-yl)methanone]
The IC50 of the first is 2.4-fold higher: 17 nM for the first, 7 nM for the second.

First: O=C(c1cc(OCC2CCOCC2)cc(C2CC2)c1)N1C[C@@H]2CN(C(=O)c3ccc4[nH]nnc4c3)C[C@H]2C1 [Example 2.29, ((3aS,6aS)-5-(1H-benzo[d][1,2,3]triazole-5-carbonyl)hexahydropyrrolo[3,4-c]pyrrol-2(1H)-yl)(3-cyclopropyl-5-((tetrahydro-2H-pyran-4-yl)methoxy)phenyl)methanone]
Second: O=C(c1cnc(OC2CCOCC2)c(C2CC2)c1)N1C[C@@H]2CN(Cc3ccc4[nH]nnc4c3)C[C@H]2C1 [Example 4.01, ((3aS,6aS)-5-((1H-benzo[d][1,2,3]triazol-5-yl)methyl)hexahydropyrrolo[3,4-c]pyrrol-2(1H)-yl)(5-cyclopropyl-6-(tetrahydro-2H-pyran-4-yloxy)pyridin-3-yl)methanone]
The IC50 of the first is 5.6-fold lower: 7 nM for the first, 39 nM for the second.

`O=C(c1cnc(OC2CCOCC2)c(C2CC2)c1)N1C[C@@H]2CN(C(=O)c3ccc4[nH]c(=O)oc4c3)C[C@H]2C1` [Example 3, 6-((3aS,6aS)-5-(5-Cyclopropyl-6-(tetrahydro-2H-pyran-4-yloxy)nicotinoyl)octahydropyrrolo[3,4-c]pyrrole-2-carbonyl)benzo[d]oxazol-2(3H)-one] and `O=C(c1cnc(OC2CCOCC2)c(C2CC2)c1)N1C[C@@H]2CN(Cc3ccc4[nH]c(=O)oc4c3)C[C@H]2C1` [Example 4, 6-(((3aS,6aS)-5-(5-Cyclopropyl-6-(tetrahydro-2H-pyran-4-yloxy)nicotinoyl)hexahydropyrrolo[3,4-c]pyrrol-2(1H)-yl)methyl)benzo[d]oxazol-2(3H)-one] are within 1.5-fold of each other in IC50: 25 nM for the first, 19 nM for the second.

`O=C(OCc1c[nH]nn1)N1C[C@H]2CCN(C(=O)c3cc(OCC4CCOCC4)nc(C4CC4)c3)CC[C@H]2C1` [Example 7, 1H-Triazol-4-ylmethyl (3aS,8aR)-6-[2-cyclopropyl-6-(oxan-4-ylmethoxy)pyridine-4-carbonyl]-1,3,3a,4,5,7,8,8a-octahydropyrrolo[3,4-d]azepine-2-carboxylate] showed an IC50 of 6 nM.
